Data published in ChEMBL document CHEMBL3045751, “Structural Modification of the 6-Chloropyridyl Moiety in the Imidacloprid, Skeleton: Introduction of a Five-membered Heteroaromatic Ring and the Resulting Insecticidal Activity” (1993).

System: Nephotettix cincticeps
Test: Insecticidal activity against Nephotettix cincticeps (green rice leafhopper) in compound treated germinated rice seedlings assessed as mortality measured after 5 days
Type: functional

Row | SMILES | LC90
1 | O=[N+]([O-])/C=C1\NCCN1Cc1ccccc1 | 200 ppm
2 | O=[N+]([O-])/N=C1\NCCN1Cc1cnc(Cl)s1 [IMIDACLOTHIZ] | 0.32 ppm
3 | O=[N+]([O-])/C=C1\NCCN1Cc1cc(Br)no1 | 1.6 ppm
4 | O=[N+]([O-])/C=C1\NCCN1Cc1ccc(Br)s1 | 40 ppm
5 | O=[N+]([O-])/N=C1\NCCN1Cc1ccc(Cl)nc1 [IMIDACLOPRID] | 0.32 ppm
6 | Cn1cc(CN2CCN/C2=C\[N+](=O)[O-])cn1 | 1.6 ppm
7 | Cc1cc(CN2CCN/C2=C\[N+](=O)[O-])on1 | 1.6 ppm
8 | O=[N+]([O-])/C=C1\NCCN1Cc1cccs1 | 200 ppm
9 | O=[N+]([O-])/C=C1\NCCN1Cc1csc(Cl)n1 | 200 ppm
10 | O=[N+]([O-])/C=C1\NCCN1Cc1cnc(Cl)s1 | 0.32 ppm
11 | O=[N+]([O-])/C=C1\NCCN1Cc1cncs1 | 8 ppm
12 | Cc1ncc(CN2CCN/C2=C\[N+](=O)[O-])s1 | 1.6 ppm
13 | O=[N+]([O-])/C=C1\NCCN1Cc1ccc(Cl)nc1 | 0.32 ppm
14 | O=[N+]([O-])/C=C1\NCCN1Cc1ccco1 | 200 ppm
15 | O=[N+]([O-])/C=C1\NCCN1Cc1cccnc1 | 8 ppm
16 | O=[N+]([O-])/C=C1\NCCN1Cc1ccc[nH]1 | 200 ppm
